Measurements: patent US20050074810A1, “Method for non-invasilvely determining the relative levels of two biological substances” (priority 2001, published 2005)

Experiment: In vitro reverse iontophoretic extraction of valproate and glutamate (Example 1)
Assay type: in vitro ADME, pig
Conditions: glutamate 60 μM
Procedure: The cathodal chamber was sampled only at the end of 5 hours of current passage.
Subsequent to this first period of 5 hours at 0.4 mA, a reduced current of 0.1 mA was passed for the next 19 hours, at the end of which both anodal and cathodal chambers were sampled.
The total experiment therefore lasted 24 hours.

[1] = subdermal valproate 21 μM, 4-5 h, 0.4 mA
[2] = subdermal valproate 21 μM, 5-24 h, 0.1 mA
[3] = subdermal valproate 35 μM, 4-5 h, 0.4 mA
[4] = subdermal valproate 35 μM, 5-24 h, 0.1 mA
[5] = subdermal valproate 70 μM, 4-5 h, 0.4 mA
[6] = subdermal valproate 70 μM, 5-24 h, 0.1 mA
[7] = subdermal valproate 104.5 μM, 4-5 h, 0.4 mA
[8] = subdermal valproate 104.5 μM, 5-24 h, 0.1 mA

- Transport number (×10^6) (subdermal valproate 21 μM, 0-1 h): 7.89 ± 4.51 ×10^6
- Extraction flux (subdermal valproate 21 μM, 0-1 h, 0.4 mA): 118 pmoles · h^−1 · cm^−2
- Transport number (×10^6) (subdermal valproate 21 μM, 1-2 h): 20.6 ± 7.92 ×10^6
- Extraction flux (subdermal valproate 21 μM, 1-2 h, 0.4 mA): 308 pmoles · h^−1 · cm^−2
- Transport number (×10^6) (subdermal valproate 21 μM, 2-3 h): 29.5 ± 7.38 ×10^6
- Extraction flux (subdermal valproate 21 μM, 2-3 h, 0.4 mA): 440 pmoles · h^−1 · cm^−2
- Transport number (×10^6) (subdermal valproate 21 μM, 3-4 h): 32.1 ± 5.77 ×10^6
- Extraction flux (subdermal valproate 21 μM, 3-4 h, 0.4 mA): 479 pmoles · h^−1 · cm^−2
- Extraction flux [1]: 570 pmoles · h^−1 · cm^−2
- Transport number (×10^6) [1]: 38.2 ± 5.19 ×10^6
- Extraction flux [2]: 142 pmoles · h^−1 · cm^−2
- Transport number (×10^6) [2]: 38.1 ± 6.24 ×10^6
- Transport number (×10^6) (subdermal valproate 35 μM, 0-1 h): 10.4 ± 5.47 ×10^6
- Extraction flux (subdermal valproate 35 μM, 0-1 h, 0.4 mA): 155 pmoles · h^−1 · cm^−2
- Transport number (×10^6) (subdermal valproate 35 μM, 1-2 h): 24.6 ± 5.83 ×10^6
- Extraction flux (subdermal valproate 35 μM, 1-2 h, 0.4 mA): 367 pmoles · h^−1 · cm^−2
- Transport number (×10^6) (subdermal valproate 35 μM, 2-3 h): 32.4 ± 5.71 ×10^6
- Extraction flux (subdermal valproate 35 μM, 2-3 h, 0.4 mA): 484 pmoles · h^−1 · cm^−2
- Transport number (×10^6) (subdermal valproate 35 μM, 3-4 h): 38.2 ± 2.84 ×10^6
- Extraction flux (subdermal valproate 35 μM, 3-4 h, 0.4 mA): 571 pmoles · h^−1 · cm^−2
- Extraction flux [3]: 588 pmoles · h^−1 · cm^−2
- Transport number (×10^6) [3]: 39.4 ± 3.28 ×10^6
- Extraction flux [4]: 143 pmoles · h^−1 · cm^−2
- Transport number (×10^6) [4]: 38.3 ± 4.24 ×10^6
- Transport number (×10^6) (subdermal valproate 70 μM, 0-1 h): 5.92 ± 3.03 ×10^6
- Extraction flux (subdermal valproate 70 μM, 0-1 h, 0.4 mA): 88 pmoles · h^−1 · cm^−2
- Transport number (×10^6) (subdermal valproate 70 μM, 1-2 h): 17.9 ± 6.88 ×10^6
- Extraction flux (subdermal valproate 70 μM, 1-2 h, 0.4 mA): 267 pmoles · h^−1 · cm^−2
- Transport number (×10^6) (subdermal valproate 70 μM, 2-3 h): 26.0 ± 6.32 ×10^6
- Extraction flux (subdermal valproate 70 μM, 2-3 h, 0.4 mA): 388 pmoles · h^−1 · cm^−2
- Transport number (×10^6) (subdermal valproate 70 μM, 3-4 h): 33.1 ± 6.80 ×10^6
- Extraction flux (subdermal valproate 70 μM, 3-4 h, 0.4 mA): 494 pmoles · h^−1 · cm^−2
- Extraction flux [5]: 524 pmoles · h^−1 · cm^−2
- Transport number (×10^6) [5]: 35.1 ± 5.52 ×10^6
- Extraction flux [6]: 146 pmoles · h^−1 · cm^−2
- Transport number (×10^6) [6]: 39.2 ± 6.45 ×10^6
- Transport number (×10^6) (subdermal valproate 104.5 μM, 0-1 h): 9.92 ± 4.20 ×10^6
- Extraction flux (subdermal valproate 104.5 μM, 0-1 h, 0.4 mA): 148 pmoles · h^−1 · cm^−2
- Transport number (×10^6) (subdermal valproate 104.5 μM, 1-2 h): 24.2 ± 4.79 ×10^6
- Extraction flux (subdermal valproate 104.5 μM, 1-2 h, 0.4 mA): 361 pmoles · h^−1 · cm^−2
- Transport number (×10^6) (subdermal valproate 104.5 μM, 2-3 h): 32.8 ± 3.60 ×10^6
- Extraction flux (subdermal valproate 104.5 μM, 2-3 h, 0.4 mA): 490 pmoles · h^−1 · cm^−2
- Transport number (×10^6) (subdermal valproate 104.5 μM, 3-4 h): 37.9 ± 4.98 ×10^6
- Extraction flux (subdermal valproate 104.5 μM, 3-4 h, 0.4 mA): 566 pmoles · h^−1 · cm^−2
- Extraction flux [7]: 599 pmoles · h^−1 · cm^−2
- Transport number (×10^6) [7]: 40.1 ± 5.16 ×10^6
- Extraction flux [8]: 157 pmoles · h^−1 · cm^−2
- Transport number (×10^6) [8]: 42.2 ± 6.22 ×10^6
SMILES: N[C@@H](CCC(=O)O)C(=O)O [Glutamate, glutamate]
